We go through three compounds from patent US12054660B2, “Compound, composition, cured substance, optically anisotropic body, optical element, and light guide element” (FUJIFILM Corporation, priority 2021, dated 2024).

Holding throughout (assay type): physicochemical
A short description of data set [1]: Evaluation of liquid crystallinity (hot stage, polarization microscope). Set-up: key: A case of having liquid crystallinity was evaluated as A; a case of having no liquid crystallinity was evaluated as B. The settings on record: heated on a hot stage. The text has this: As a specific observation method, optical anisotropy and fluidity derived from the liquid crystal phase can be checked by carrying out an observation under a polarization microscope while heating or lowering the temperature of the compound with a hot stage or the like.
The respective compounds of Examples and Comparative Examples (the compounds A-1, A-3 to A-20, and the compounds RA-1 and RA-2) were heated on a hot stage and observed with a polarization microscope, and the phase transition temperature was measured to evaluate the presence or absence of liquid crystallinity. A case of having liquid crystallinity was evaluated as A, and a case of having no liquid crystallinity was evaluated as B. The results are shown in Table 1.

Data set [2] is described as follows: Measurement of Δn (refractive index anisotropy), wedge-shaped liquid crystal cell. The settings on record: 550 nm, 30° C. or lower limit temperature of nematic phase+0 to 10° C.; some extrapolated from 1/2 mixture with L-1-1. How it is done: The Δn of each of the compounds of Examples and Comparative Examples (the compounds A-1, A-3 to A-20, and the compounds RA-1 and RA-2), which are the compounds to be measured, was measured by a method using a wedge-shaped liquid crystal cell described on page 202 in the Liquid crystal handbook (edited by the liquid crystal handbook editorial board, published by Maruzen Co., Ltd., 2000). An was defined as a measured value at a wavelength of 550 nm at 30° C. or the lower limit temperature of the nematic phase+0° C. to 10° C. In a case of a compound which is liable to crystallize or a compound having no liquid crystallinity, evaluation was carried out using a mixture thereof with the other liquid crystal compound, and Δn was estimated from the extrapolated value of the measured value thereof. The following L-1-1 was used as the other liquid crystal compound. As the above mixture, a mixture obtained by mixing at a ratio of the compound to be measured/the L-1-1=1/2 (in terms of mass ratio) was used.
A case where Δn was 0.35 or more was evaluated as A, a case where Δn was 0.32 or more and less than 0.35 was evaluated as B, a case where Δn was 0.30 or more and less than 0.32 was evaluated as C, and a case where Δn was less than 0.30 was evaluated as D. The results are shown in Table 1.

Data set [3] can be described thus: Evaluation of solubility in methyl ethyl ketone. The settings on record: precipitation concentration in methyl ethyl ketone at room temperature (25° C.). How it is done: The solubility of each of the compounds of Examples and Comparative Examples (the compounds A-1, A-3 to A-20, and the compounds RA-1 and RA-2) in methyl ethyl ketone was evaluated. A solution in which the compound was ultrasonically dissolved or dissolved by heating was produced.

The nature of data set [4]: Evaluation of durability (moisture-heat resistance test) of optically anisotropic layer. The following applies: rate of change in Re of layer (25 parts compound/75 parts L-1) after 136 hours at 100° C., 95% RH. How it is done: (§1) As shown below, the durability of the optically anisotropic layer produced using the composition containing each of the compounds A-1 and A-3 to A-20, and the compounds RA-1 and RA-2 was evaluated.
(§2) A coating composition having the following composition was prepared and applied by spin coating onto a rubbing-treated glass attached with an alignment film.
(§3) The polymerizable liquid crystal compound L-1 is a mixture obtained by mixing at a ratio of the following L-1-1/L-1-2/L-1-3=84/14/2 (in terms of mass ratio).
(§4) Re is an in-plane retardation. Rate of change in Re (%)=[100×{|(Re after test)−(Re before test)|}/(Re before test)]
(§5) Re was measured with Axoscan manufactured by Axometrics, Inc. at a wavelength of 550 nm, and the measurement temperature was set to room temperature.
The produced optically anisotropic layer was allowed to be left for 136 hours at 100° C. and a relative humidity of 95% RH, whereby a moisture-heat resistance test was carried out. The rate of change in Re before and after the durability test was evaluated, the durability in a case where the rate of change in Re was less than 10% was evaluated as A, and the durability in a case where the rate of change in Re was 10% or more was evaluated as B. The smaller the rate of change in Re, the more excellent the durability.

Data set [5] is described as follows: Evaluation of light resistance of optically anisotropic layer. The following applies: rate of change in Re of layer (25 parts compound/75 parts L-1) after xenon irradiation 50 hours, 63° C., 50% RH, oxygen-blocking. How it is done: as §1, §2, §3
The produced optically anisotropic layers for light resistance/durability tests were irradiated with light using a Super Xenon Weather Meter SX75 manufactured by Suga Test Instruments Co., Ltd. Using KU-1000100 manufactured by King Seisakusho Co., Ltd. as an ultraviolet ray cut filter, irradiation with 5 million 1× of light was carried out for 50 hours under the oxygen-blocking conditions to carry out a light resistance test. The temperature of the specimen to be tested (the temperature inside the test device) was set to 63° C. The relative humidity in the test device was 50% RH.
The Re of the optically anisotropic layer before and after the light resistance test was measured, the light resistance in a case where the rate of change in Re described below was less than 10% was evaluated as A, and the light resistance in a case where the rate of change in Re was 10% or more was evaluated as B. The smaller the rate of change in Re, the more excellent the light resistance.
as §4, §5

As to `C=CC(=O)OCCSc1ccc(C#Cc2ccc(OCCOc3ccc(C#Cc4ccc(SCCOC(=O)C=C)cc4)cc3C(=O)OC)c(C(=O)OC)c2)cc1` [Compound A-18], the Liquid crystallinity entry in data set [1] is given as “A”. Also, the Δn result in data set [2] is listed as “A (A case where Δn was 0.35 or more was evaluated as A)”. In addition, the Solubility result in data set [3] was “A (the solubility in a case where the precipitation concentration was 10% by mass or more was evaluated as A)”. For the same compound, in data set [4], the Durability entry was “A (the durability in a case where the rate of change in Re was less than 10% was evaluated as A)”. Also, the Light resistance result in data set [5] was “A (the light resistance in a case where the rate of change in Re described below was less than 10% was evaluated as A)”.
For `CC(=O)OCCCCCCCCCCOc1ccc(C#Cc2ccc(OC(=O)c3ccc(C#Cc4ccc(OCCCCCCCCCCOC(C)=O)c(F)c4)cc3)cc2)cc1F` [RA-1, reference compound] the same measures were “A”, “D (a case where Δn was less than 0.30 was evaluated as D)”, “B (the solubility in a case where the precipitation concentration was less than 10% by mass was evaluated as B)”, “A (the durability in a case where the rate of change in Re was less than 10% was evaluated as A)” and “B (the light resistance in a case where the rate of change in Re was 10% or more was evaluated as B)”.
For the compound `C=CC(=O)OCCCCSc1ccc(C#Cc2ccc(NC(=O)c3ccc(SCCCCOC(=O)C=C)cc3)c(C(F)(F)F)c2)cc1` [RA-2, reference compound], the Liquid crystallinity entry in data set [1] is reported as “A”. Further, in data set [2], the Δn entry was “C (a case where Δn was 0.30 or more and less than 0.32 was evaluated as C)”. Besides, the Solubility result in data set [3] is given as “B (the solubility in a case where the precipitation concentration was less than 10% by mass was evaluated as B)”. Besides, the Durability entry in data set [4] is on record as “A (the durability in a case where the rate of change in Re was less than 10% was evaluated as A)”. Moreover, in data set [5], the Light resistance entry was “B (the light resistance in a case where the rate of change in Re was 10% or more was evaluated as B)”.
